From patent US5380714A, “2-furyl-triazalo [1,5-a]-[1,3,5]triazines and pyrazolo [2,3-a][1,3,5]triazines” (Imperial Chemical Industries PLC, priority 1991, dated 1995)

Target: T1, A2 Adenosine receptor (Rattus norvegicus, UniProt P30543)
T1 construct: membrane preparations derived from the rat phaeochromocytoma cell line PC 12; host or cells: PC 12 (rat phaeochromocytoma)
Experiment: A2 Adenosine receptor affinity test: displacement of [3H]-NECA from PC 12 cell membranes
Assay type: binding
From the text: (a) A2 Adenosine receptor affinity test This test involves the ability of a test adenosine antagonist to displace the known adenosine mimetic agent [^3 H]-N-ethylcarboxamidoadenosine (NECA) from binding sites on membrane preparations derived from the rat phaeochromocytoma cell line PC 12 (available from the Beatson Institute, Glasgow). […] The membrane preparation is obtained as follows: Frozen pellets of PC12 cells are washed twice with ice cold, buffered, physiological saline and the cells recovered by centrifugation (1500 G) at 3° C. The separated cells are then suspended in hypotonic solution (distilled water), allowed to stand on ice for 30 minutes and are then carefully homogenized using a standard high-speed homogeniser with periodic ice-cooling to obtain a fine suspension. […] A1280). The mixture is then incubated at 37° C. After 20 minutes, the reaction is terminated by dilution with ice-cold buffer and transfer onto ice. The material obtained containing the cell membranes is recovered by centrifugation and washed by resuspension in buffer and recentrifugation. The pellet produced is then resuspended in ice-cold buffer using a hand-driven homogenizer. The resultant membrane suspension is frozen and stored under liquid nitrogen until required. […] After incubation, the samples are rapidly filtered over glass-fibre mats and the filter mats are washed to remove non-receptor-bound radioligand. Receptor-bound radioligand entrapped on the filter mats is then determined by liquid scintillation counting. Filtration and washing are carried out using a conventional vacuum filtration cell harvester. The specific binding (defined as the difference between the total binding and the non-specific binding) in the presence of the particular test compound is determined and compared with the control value.

[1] = read-out: displacement of control binding

T1 sequence (P30543 whole entry): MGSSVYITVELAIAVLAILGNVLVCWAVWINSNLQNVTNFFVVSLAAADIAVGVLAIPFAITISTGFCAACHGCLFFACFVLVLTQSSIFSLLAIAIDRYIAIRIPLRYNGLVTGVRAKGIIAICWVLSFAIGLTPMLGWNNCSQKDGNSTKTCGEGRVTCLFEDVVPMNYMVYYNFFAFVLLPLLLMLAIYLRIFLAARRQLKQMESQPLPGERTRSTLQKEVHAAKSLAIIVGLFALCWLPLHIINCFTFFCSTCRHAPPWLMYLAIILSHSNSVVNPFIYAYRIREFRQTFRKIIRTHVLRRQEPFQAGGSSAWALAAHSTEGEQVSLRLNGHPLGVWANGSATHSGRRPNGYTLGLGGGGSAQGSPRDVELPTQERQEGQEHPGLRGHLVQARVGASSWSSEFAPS

For `CN(C)CCN(C)S(=O)(=O)c1ccc(CCNc2nc(N)n3nc(-c4ccco4)nc3n2)cc1` [Example 1, 7-Amino-2-(2-furyl)-5-[2-[(4-dimethylaminoethyl-N,methylsulphonamido)phenyl]ethyl]amino[1,2,4]-triazolo[1,5-a][1,3,5]-triazine], which IC50 ([3H]-NECA displacement, PC 12 membranes, inferred from displacement at 10^-5 M and 10^-7 M, read-out: pIC50 (indicated by % displacement values) (converted)) is on record?
Its IC50 is under 100 nM.

What about the inhibition at 0.1 µM [1] of the same compound?
The inhibition at 0.1 µM was 77.7%.

What about the inhibition at 10 µM [1] of the same compound?
The inhibition at 10 µM was 93.7%.
